Measurements: patent US8354265B2, “Chemicals promoting the growth of N-acylhomoserine lactone-degrading bacteria” (Centre National de la Recherche Scientifique, priority 2007, dated 2013)
“Also recorded” adds a separate entry of the source.

What was measured:
[1] = tested on: bacterial consortia from unplanted soil; assay: C6-HSL inactivation by bacterial consortia enriched from unplanted soil on the compound as sole carbon source; type: cell-based; settings: soil and rhizospheric samples; among 25 assayed molecules
[2] = tested on: bacterial consortia originating from rhizospheric soil; assay: C6-HSL inactivation by bacterial consortia enriched from rhizospheric soil; type: cell-based
soil bacterial consortia = assay: NAHL (C6-HSL, OC8-HSL) inactivation by soil consortia enriched on second set of compounds; type: cell-based; settings: C6-HSL 25 μM or OC8-HSL 200 nM
Method: FIG. 4: Kinetics of NAHL inactivation by bacterial consortia. (A) NAHL is C6-HSL with an initial concentration of 25 μM (B) NAHL is 3-oxo-octanoylhomoserine lactone (OC8-HSL), with an initial concentration of 200 nM. The different bacterial consortia obtained after enrichment on the indicated compounds as a sole carbon source (mannitol is abbreviated as Man) were tested to for their capacity to inactivate NAHL signal. At each time (0, 1, 3 and 5 hrs), the uninoculated control (C) was used to estimate the percentage of residual NAHL.
Non sterile soil from the CNRS experimental field (Mérantaise) at Gif-sur-Yvette (France) was mixed with sterile sand Loire River and distributed into pots (20 cm in diameter). Some of them were sown with disinfected seeds of Nicotiana tabacum cv. Samson. Pots were randomly placed in the greenhouse (CNRS, Gif-sur-Yvette), under a long day conditions (16 h) at 17° C. (night) and 24° C. (day), and watered daily with tap water. One gram of unplanted or rhizospheric (3-months aged plants) soil was resuspended in 10 mL of sterile 0.8% NaCl. […] After a 3-days incubation at 25° C. under shaking (180 rpm), the cell cultures were diluted (1/50) into fresh AB media for an additional 2-days enrichment step. […]

[3] = tested on: bacteria recovered from the consortia; assay: NAHL production and inactivation by isolates recovered from the consortia, with rrs identification; type: cell-based; settings: for NAHL-producing bacteria among isolates of the consortia: 280 isolates from 280 independent enrichments
bacterial consortia = assay: Inactivation of C6-HSL and OC8-HSL by mannitol, 6CL, GCL and HTN consortia; type: cell-based
Description: (§1) The Mannitol-, 6CL-, GCL-, and HTN-consortia were compared for their capacity to inactivated OC8-HSL, the major NAHL produced by the plant pathogen Erwinia carotovora subsp. atroseptica 6276, as well as for their biocontrol activity against this pathogen in potato maceration assay.

[4] = tested on: Erwinia carotovora subsp. atroseptica 6276; assay: Maceration assay on potato tubers (biocontrol activity of consortia); type: in vivo; settings: potato tubers infected with mix of Erwinia carotovora 6276 and consortia
Description: FIG. 6: Maceration assay on potato tubers.
as §1

[5] = tested on: NAHL-degrading bacteria of potato rhizosphere; assay: HTN treatment on planted batches (FIG. 9); type: in vivo, Solanum tuberosum
Description: FIG. 9: Percentage of NAHL-degrading and NAHL-producing strains in potato rhizosphere after treatment with HTN. The percentage of NAHL degraders and NAHL producers was estimated among cultivable bacteria (cfu/g of fresh weight of roots), which were recovered from potato rhizospheres before the treatment (D0; white columns), 14 days (D14; dark grey columns), 28 days (D28; black columns) after the first treatment and 42 days after the first treatment, i.e., 14 days after the second treatment (D42; grey columns). The letters indicate statistically different values (Student's t-test; 0.05).
The non sterile batches (40×60×8 cm) contained 13 L of the nutritive solution Hydrobloom (Cellmax, UK) with Nitrogen at 0.80 g/L, Phosphore at 0.56 g/L and Potassium at 1.48 g/L as major components. The solution was diluted from a concentrated stock solution (×250) with non sterile water from the public water system. One hundred plants of Solanum tuberosum var. Allians, which were recovered from cultures performed under sterile conditions, were placed into holes (3 cm space to each other) of batch covers. […] Three samples were analyzed from each batch at each time D0, D14 and D28; from each sample, thirty isolates from TSA plates and thirty fluorescent isolates from King B plates were individually tested from production and inactivation of NAHL signal. […]

[6] = tested on: NAHL-degrading rhizobacteria; assay: Diversity of NAHL-degrading rhizobacteria after HTN treatments, rrs sequencing (Table 3); type: in vivo, Solanum tuberosum
Description: (§2) The 5′-end of the rrs gene was amplified with primers pA (5′-[…]) (SEQ ID NO:1) and 518r (5′-[…]) (SEQ ID NO:2), and sequenced with pA primer by GenomeExpress (Meylan, France). At least 400 bp were submitted to the NCBI database. Although some sequence comparisons authorized identification of isolates at the species level, only the genus level was retained in this study for homogeneity.
To analyze the impact of HTN on the diversity of NAHL-degrading strains, 50 NAHL-degrading strains were sampled from the third set of experiments, at the beginning of the experiments (D0) and after 14 and 42 days. The isolates were identified by rrs-sequencing (Table 3). At D0, all of the 5 NAHL-degrading isolates analyzed were identified as Agrobacterium. However, at D14 and D42, the Rhodococcus isolates dominated in treated batches, in which Delftia and Sinorhizobium were also detected

[7] = tested on: NAHL-degrading bacteria in the nutritive solution; assay: Ratio of NAHL-degrading bacteria in unplanted batches of nutritive solution; type: cell-based; settings: for percentage of NAHL-degrading bacteria in the nutritive solution: without plants
Method: (§3) The non sterile batches (40×60×8 cm) contained 13 L of the nutritive solution Hydrobloom (Cellmax, UK) with Nitrogen at 0.80 g/L, Phosphore at 0.56 g/L and Potassium at 1.48 g/L as major components. The solution was diluted from a concentrated stock solution (×250) with non sterile water from the public water system. One hundred plants of Solanum tuberosum var. Allians, which were recovered from cultures performed under sterile conditions, were placed into holes (3 cm space to each other) of batch covers. Planted batches were placed in the greenhouse (Comité Nord Plants de Pomme de Terre, Bretteville-du-Grand-Caux) under natural light at 10-15° C. (night) and 25-30° C. (day). […] An untreated batch was used as a control. One gram of roots (fresh weight) was resuspended in 10 mL of sterile MgSO4 10 mM, diluted and spread on TSA and King B plates to isolate total cultivable bacteria and fluorescent Pseudomonas, respectively. Three samples were analyzed from each batch at each time D0, D14 and D28; from each sample, thirty isolates from TSA plates and thirty fluorescent isolates from King B plates were individually tested from production and inactivation of NAHL signal.
(§4) Bacterial isolates grown in 96-microwell plates were individually tested from production of NAHL with the A. tumefaciens biosensor NT1 (pZNLR4) and the inactivation of the C6-HSL signal, as described previously (d'Angelo-Picard et al. 2004).
Allians was evaluated. The plants were cultivated in vitro under sterile conditions, then placed into batches in a greenhouse at Bretteville-du-Grand-Caux (France) in a non-sterile environment. Especially, a non-sterile nutritive solution was used and served as a source of naturally occurring bacteria. […] The ratio of NAHL-degrading bacteria in the nutritive solution was evaluated before the treatment and 14-day later. This percentage increased from 10±2 to 30±2 in the case of the 6CL-treated batch and from 10±2 to 70±2 in the GCL-treated batch. From the 6CL- and GCL-treated batches, 10 NAHL-degrading bacteria were identified by their rrs sequence: 9 belonged to the Delftia genus, the other one to the Rhodococcus genus.

[8] = tested on: NAHL-degrading rhizobacteria of potato rhizosphere; assay: Preliminary experiment in planted hydroponic batches: level and diversity of NAHL-degrading rhizobacteria (Table 1); type: in vivo, Solanum tuberosum var. Allians
Method: as §3, §4
At least 400 bp were submitted to the NCBI database.

[9] = tested on: NAHL-degrading and NAHL-producing bacteria of potato rhizosphere; assay: Two independent analyses of 6CL and GCL treatments on planted batches (FIG. 7); type: in vivo, Solanum tuberosum var. Allians
Description: FIG. 7: Percentage of NAHL-degrading and NAHL-producing strains in potato rhizosphere. […] An untreated batch was used as a control in the two independent sets of experiments. The mean of three replicates is shown. Statistically different values (Student t test; 0.05) are noted by different letters.
as §3, §4
An untreated batch was used as a control.

[10] = tested on: NAHL-degrading rhizobacteria; assay: Diversity of NAHL-degrading rhizobacteria after 6CL and GCL treatments, rrs sequencing (Table 2); type: in vivo, Solanum tuberosum; settings: D14 and D28; 0.1 mL/L
Method: as §3, §2
The isolates were identified by rrs-sequencing (Table 2). At D0, most of the NAHL-degrading isolates were identified as Delftia. However, at D14 and D28, the Agrobacterium isolates dominated in untreated batches, while they were not detected in the treated batches. In those, the more frequently counted bacteria were Delftia and Rhodococcus.

young plants = settings: in vivo
[11] = 6CL- and GCL-treated batches together, rrs sequence

## CCCC1CCC(=O)O1 (centres unmarked) [HTN, 4-heptanolide]
[1]
  growth stimulation of NAHL-degrading bacteria after enrichment procedures: stimulated the growth of NAHL-degrading bacteria
[2]
  activity of consortia towards C6-HSL (ranking): the most active
Soil bacterial consortia
  efficiency for obtaining NAHL-degrading consortia (ranking): most efficient
[3]
  NAHL-inactivating bacteria recovered from consortia: recovered
  NAHL-producing bacteria among isolates of the consortia: none
[3]; HTN consortia, rrs sequence
  NAHL-degrading isolates belonging to the Rhodococcus genus: All seventeen
Bacterial consortia
  speed of C6-HSL signal inactivation versus Mannitol consortia: inactivated more rapidly
  speed of OC8-HSL signal inactivation versus Mannitol consortia: inactivated more rapidly
[4]
  biocontrol activity of the consortia against E. carotovora 6276: biocontrol activity was observed; also recorded: showed biocontrol activity
[5]; 0.1 and 0.4 mL/L, second treatment at day 28, D14, D28, D42
  ability to stimulate the growth of NAHL-degrading bacteria: confirmed the ability of HTN to stimulate the growth of NAHL-degrading bacteria
[5]; applied to hydroponic plant cultures (FIG. 9)
  percentage of NAHL-degrading bacteria among total cultivable bacteria: significant increase
[6]; D14 and D42
  Rhodococcus isolates among NAHL-degrading isolates in treated batches: dominated
[6]; D 14 and D 42, 0.1 mL/L
  rrs-identified NAHL-degraders: Delftia: 1
  rrs-identified NAHL-degraders: Rhodococcus: 16
[6]; D 14 and D 42, 0.4 mL/L
  rrs-identified NAHL-degraders: Rhodococcus: 27
  rrs-identified NAHL-degraders: Sinorhizobium: 1

## O=C1CCCO1 [GBL, gamma-butyrolactone]
[3]
  NAHL-producing bacteria among isolates of the consortia: 12 % of the tested strains

## OCC1CCCO1 (centres unmarked) [THA, tetrahydrofurfuryl alcohol]
[2]
  activity of consortia towards C6-HSL (ranking): the most active
[3]
  NAHL-inactivating bacteria recovered from consortia: recovered
  NAHL-producing bacteria among isolates of the consortia: 13 % of the tested strains

## O=C1CCCCCO1 [6CL, 6-caprolactone, reference compound]
[1]
  growth stimulation of NAHL-degrading bacteria after enrichment procedures: stimulated the growth of NAHL-degrading bacteria
[2]
  activity of consortia towards C6-HSL (ranking): the most active
[3]
  NAHL-inactivating bacteria recovered from consortia: recovered
  NAHL-producing bacteria among isolates of the consortia: none
[3]; 6CL and GCL consortia together
  NAHL-degrading isolates related to Chryseobacterium: 10%
  NAHL-degrading isolates related to Delftia: 80 % of the identified strains
  NAHL-degrading isolates related to Ralstonia: 3%
  NAHL-degrading isolates related to Rhodococcus: 7%
Bacterial consortia
  speed of C6-HSL signal inactivation versus Mannitol consortia: inactivated more rapidly
  speed of OC8-HSL signal inactivation versus Mannitol consortia: inactivated more rapidly
[4]
  biocontrol activity of the consortia against E. carotovora 6276: did not
[7]; [11]
  NAHL-degrading bacteria belonging to the Delftia genus (of 10 identified): 9
  NAHL-degrading bacteria belonging to the Rhodococcus genus (of 10 identified): one
[7]; 14-day after treatment at 1 mL/L
  percentage of NAHL-degrading bacteria in the nutritive solution: 30±2%
[7]; before the treatment
  percentage of NAHL-degrading bacteria in the nutritive solution: 10±2%
[8]; 0.1 mL/L, 28 days after amendment, planted batches
  increase of the ratio of NAHL-degrading bacteria: not
[8]; D0 (before treatment)
  Log CFU/gram of root (fresh weight): 8.0 ± 7.6 Log CFU/gram of root (fresh we
  NAHL degraders (%): 8.9 ± 1.5 %
  NAHL producers (%): 7.8 ± 1.2%
[8]; D0, of 8 isolates
  rrs-identified NAHL-degraders: Delftia: 7
  rrs-identified NAHL-degraders: Pseudomonas: 1
[8]; D28, 0.1 mL/L
  Log CFU/gram of root (fresh weight): 10.5 ± 10.1 Log CFU/gram of root (fresh we
  NAHL degraders (%): 6.7 ± 1.7 %
  NAHL producers (%): 5.6 ± 0.6%
  identified genera of NAHL-degrading bacteria: 3
[8]; D28, 0.1 mL/L, of 8 isolates
  rrs-identified NAHL-degraders: Agrobacterium: 4
  rrs-identified NAHL-degraders: Delftia: 2
  rrs-identified NAHL-degraders: Pseudomonas: 2
[9]; 0.1 mL/L
  specific effect on the NAHL-degrading bacteria of the rhizosphere: no specific effect
[9]; 0.1 mL/L, during all experiments
  proportion of NAHL-degrading bacteria: remained at a quite similar level
[9]; 6CL 0.1 mL/L, GCL 0.1 and 0.4 mL/L, D14 and D28
  modification of the ratio of NAHL-producing bacteria: no repeatable modification
[10]
  rrs-identified NAHL-degraders: Delftia: 9
  rrs-identified NAHL-degraders: Others: 2
  rrs-identified NAHL-degraders: Rhizobium: 1
  rrs-identified NAHL-degraders: Rhodococcus: 6
Young plants
  sensitivity of young plants: sensitive

## OC[C@@H](O)[C@@H](O)[C@H](O)[C@H](O)CO [Mannitol, mannitol, reference compound]
[3]
  NAHL-producing bacteria among isolates of the consortia: 10 % of the tested strains
[4]
  biocontrol activity of the consortia against E. carotovora 6276: did not

## C1CCOC1 [THF, tetrahydrofurane]
[3]
  NAHL-inactivating bacteria recovered from consortia: recovered
  NAHL-producing bacteria among isolates of the consortia: 41 % of the tested strains

## CCCCC1CCC(=O)O1 (centres unmarked) [GOL, gamma-octalactone]
[1]
  growth stimulation of NAHL-degrading bacteria after enrichment procedures: stimulated the growth of NAHL-degrading bacteria
Soil bacterial consortia
  efficiency for obtaining NAHL-degrading consortia (ranking): most efficient
